Values joined by “and” are separate entries in the source; they are usually repeats but may differ in a detail not shown here. Equal values may be shown once.
Biological target: Human recombinant carboxy-terminal his-tagged LDHA (amino acids 2-332) (Homo sapiens, UniProt P00338)
Assay: LDHA enzyme inhibition assay (NADH fluorescence)
Conditions: LDHA IC50 (μM), 1 nM LDHA, NADH and pyruvate, stereochemistry of tested sample given

IC50 | Structure (SMILES)
0.229 µM | CCOCCOc1cccc(C2(c3ccsc3)CC(=O)C(Sc3ccccc3Cl)C(=O)N2)n1 (single isomer, unassigned) [Example 200, 3-(2-chlorophenyl)sulfanyl-6-[6-(2-ethoxyethoxy)-2-pyridyl]-6-(3-thienyl) piperidine-2,4-dione]
0.005 µM and 0.01 µM and 0.017 µM | O=C1CC(c2ccc(N3CCOCC3)cc2)(c2cscn2)NC(=O)C1Sc1ccccc1Cl (stereo not shown) [Example 42, 3-((2-chlorophenyl)thio)-6-(4-morpholinophenyl)-6-(thiazol-4-yl) piperidine-2,4-dione]
0.01 µM | Cc1csc(Nc2cccc(C3(c4ccsc4)CC(=O)C(Sc4ccccc4Cl)C(=O)N3)n2)n1 (stereo not shown) [Example 287, 3-((2-chlorophenyl)thio)-6-(6-((4-methylthiazol-2-yl)amino)pyridin-2-yl)-6-(thiophen-3-yl)piperidine-2,4-dione]
0.018 µM | COCc1ccccc1Oc1cccc(C2(c3ccsc3)CC(=O)C(Sc3ccccc3Cl)C(=O)N2)n1 (stereo not shown) [Example 101]
0.081 µM | O=C1CC(c2ccsc2)(c2cccc(OCC3CCC(CO)CC3)n2)NC(=O)C1Sc1ccccc1Cl (stereo not shown) [Example 253]
0.044 µM | O=C1C[C@@](c2ccsc2)(c2ccc(N3CCOCC3)c(F)c2)NC(=O)C1Sc1ccccc1Cl (mixture of isomers) [Example 316, (6S)-3-(2-chlorophenyl) sulfanyl-6-(3-fluoro-4-morpholine-phenyl)-6-(3-thienyl)piperidine-2,4-dione]
0.055 µM | O=C1CC(c2ccsc2)(c2cccc(OCCC3CCCCC3)n2)NC(=O)C1Sc1ccccc1Cl (single isomer, unassigned) [Example 185, 3-(2-chlorophenyl)sulfanyl-6-[6-(2-cyclohexylethoxy)-2-pyridyl]-6-(3-thienyl) piperidine-2,4-dione]
0.023 µM | O=C1CC(c2ccsc2)(c2ccc(N3CCOCC3)c(Br)n2)NC(=O)C1Sc1ccccc1Cl (stereo not shown) [Example 25, 6-(6-bromo-5-morpholino-2-pyridyl)-3-(2-chlorophenyl)sulfanyl-6-(3-thienyl)piperidine-2,4-dione]
0.008 µM | COc1cc(F)cc(Cc2cccc(C3(c4ccsc4)CC(=O)C(Sc4ccccc4Cl)C(=O)N3)n2)c1 (stereo not shown) [Example 147, 3-((2-chlorophenyl)thio)-6-(6-(3-fluoro-5-methoxy-benzyl)pyridin-2-yl)-6-(thiophen-3-yl)piperidine-2,4-dione]
0.033 µM | CN1C(=O)C(Sc2ccccc2Cl)C(=O)CC1(c1ccsc1)c1cccc(NC2CCOCC2)c1 (stereo not shown) [Example 34, 3-(2-chlorophenyl)sulfanyl-1-methyl-6-[3-(tetrahydropyran-4-ylamino)phenyl]-6-(3-thienyl)piperidine-2,4-dione]
0.034 µM | O=C1CC(c2ccsc2)(c2cccc(Sc3ccc(F)cc3)n2)NC(=O)C1Sc1ccccc1Cl (single isomer, unassigned) [Example 213, 3-(2-chlorophenyl)sulfanyl-6-[6-(4-fluorophenyl)sulfanyl-2-pyridyl]-6-(3-thienyl)piperidine-2,4-dione]
0.093 µM | O=C1CC(c2ccsc2)(c2cccc(NCc3ccc(F)cc3)n2)NC(=O)C1Sc1ccccc1Cl (single isomer, unassigned) [Example 291, 3-((2-chlorophenyl)thio)-6-(6-((4-fluorobenzyl)amino)pyridin-2-yl)-6-(thiophen-3-yl)piperidine-2,4-dione]
0.025 µM | O=C1CC(c2ccsc2)(c2cccc(NCCC3CC3)n2)NC(=O)C1Sc1ccccc1Cl (stereo not shown) [Example 138, 3-(2-chlorophenyl)sulfanyl-6-[6-(2-cyclopropyl-ethylamino)-2-pyridyl]-6-(3-thienyl)piperidine-2,4-dione]
0.056 µM | O=C1CC(c2ccsc2)(c2cccc(Oc3cncc(F)c3)n2)NC(=O)C1Sc1ccccc1Cl (single isomer, unassigned) [Example 65, 3-(2-chlorophenyl)sulfanyl-6-[6-[(5-fluoro-3-pyridyl)oxy]-2-pyridyl]-6-(3-thienyl)piperidine-2,4-dione]
0.008 µM | COCCCOc1ccc(C2(c3ccsc3)CC(=O)C(Sc3ccccc3Cl)C(=O)N2)cc1 (stereo not shown) [Example 31, 3-(2-chlorophenyl)sulfanyl-6-[4-(3-methoxypropoxy)phenyl]-6-(3-thienyl)piperidine-2,4-dione]
0.198 µM | O=C1CC(c2ccsc2)(c2cccc(OC3CCCc4c(F)cccc43)n2)NC(=O)C1Sc1ccccc1Cl (stereo not shown) [Example 333, 5-(2-chlorophenyl)sulfanyl-2-[6-(5-fluorotetralin-1-yl)oxy-2-pyridyl]-4-hydroxy-2-(3-thienyl)-1,3-dihydropyridin-6-one]
0.089 µM | CCC1CN(c2ccc(C3(c4ccsc4)CC(=O)C(Sc4ccccc4Cl)C(=O)N3)cc2)CCO1 (stereo not shown) [Example 66, 3-(2-chlorophenyl)sulfanyl-6-[4-(2-ethylmorpholin-4-yl)phenyl]-6-(3-thienyl) piperidine-2,4-dione]
0.006 µM | O=C1CC(c2ccsc2)(c2cccc(Br)n2)NC(=O)C1Sc1ccccc1Cl (stereo not shown) [Example 1, 6-(6-bromo-2-pyridyl)-3-(2-chlorophenyl)sulfanyl-6-(3-thienyl)piperidine-2,4-dione]
0.014 µM | CC(COc1cccc(C2(c3ccsc3)CC(=O)C(Sc3ccccc3Cl)C(=O)N2)n1)C1CC1 (stereo not shown) [Example 179, 3-((2-chlorophenyl)thio)-6-(6-(2-cyclopropyl-propoxy)pyridin-2-yl)-6-(thiophen-3-yl)piperidine-2,4-dione]
0.036 µM | O=C1CC(c2ccsc2)(c2cccc(CCc3ccc(F)cc3)n2)NC(=O)C1Sc1ccccc1Cl (single isomer, unassigned) [Example 294, 3-((2-chlorophenyl)thio)-6-(6-(4-fluorophenethyl)pyridin-2-yl)-6-(thiophen-3-yl)piperidine-2,4-dione]
0.012 µM | O=C1CC(c2ccsc2)(c2cccc(Oc3cccc4c3NCCC4)n2)NC(=O)C1Sc1ccccc1Cl (stereo not shown) [Example 111, 3-((2-chlorophenyl)thio)-6-(6-((1,2,3,4-tetrahydro-quinolin-8-yl)oxy)pyridin-2-yl)-6-(thiophen-3-yl)piperidine-2,4-dione]
0.089 µM | CC(C)CCOc1cccc(C2(c3ccsc3)CC(=O)C(Sc3ccccc3Cl)C(=O)N2)n1 (single isomer, unassigned) [Example 133, 3-(2-chlorophenyl)sulfanyl-6-(6-isopentyloxy-2-pyridyl)-6-(3-thienyl) piperidine-2,4-dione]
0.019 µM | CC(CC1CC1)Oc1cccc(C2(c3ccsc3)CC(=O)C(Sc3ccccc3Cl)C(=O)N2)n1 (single isomer, unassigned) [Example 251, 3-(2-chlorophenyl)sulfanyl-6-[6-(2-cyclopropyl-1-methyl-ethoxy)-2-pyridyl]-6-(3-thienyl) piperidine-2,4-dione]
0.143 µM | O=C1CC(c2ccsc2)(c2cccc(Oc3ccc(F)c(C(F)(F)F)c3)n2)NC(=O)C1Sc1ccccc1Cl (single isomer, unassigned) [Example 144, 3-(2-chlorophenyl)sulfanyl-6-[6-[4-fluoro-3-(trifluoromethyl)phenoxy]-2-pyridyl]-6-(3-thienyl) piperidine-2,4-dione]

Structure (SMILES) | IC50
CC(C)COc1cccc(C2(c3ccsc3)CC(=O)C(Sc3ccccc3Cl)C(=O)N2)n1 (stereo not shown) [Example 75, 3-(2-chlorophenyl)sulfanyl-6-(6-isobutoxy-2-pyridyl)-6-(3-thienyl)piperidine-2,4-dione] | 0.07 µM

Reference: patent publication US20170001990A1 (Genentech, Inc., priority 2014, published 2017)
